This is an account of results in ChEMBL document CHEMBL1146646, “Benzimidazoles as new potent and selective DP antagonists for the treatment of allergic rhinitis” (Bioorg Med Chem Lett, 2004).

Experiment [1] deals with T1, Prostaglandin D2 receptor (Homo sapiens, UniProt Q13258).
T1 sequence (Q13258 whole entry): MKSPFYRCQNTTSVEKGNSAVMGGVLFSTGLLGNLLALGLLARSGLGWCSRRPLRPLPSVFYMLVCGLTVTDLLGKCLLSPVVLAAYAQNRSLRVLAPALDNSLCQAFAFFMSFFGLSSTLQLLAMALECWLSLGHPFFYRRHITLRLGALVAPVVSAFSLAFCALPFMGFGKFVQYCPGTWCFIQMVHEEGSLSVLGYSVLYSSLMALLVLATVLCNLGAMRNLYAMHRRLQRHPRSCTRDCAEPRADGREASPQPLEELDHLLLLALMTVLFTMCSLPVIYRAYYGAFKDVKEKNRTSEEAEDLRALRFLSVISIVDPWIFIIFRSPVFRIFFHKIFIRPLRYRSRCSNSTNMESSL
As to the kind of experiment: Binding affinity against human recombinant […] D2 was determined using radioligand competition binding assay. (Loss of bound radioactivity is the signal in a displacement assay; it reports binding, not function.)

Experiment [2] addresses T2, Thromboxane A2 receptor (Homo sapiens, UniProt P21731).
T2 sequence (P21731 whole entry): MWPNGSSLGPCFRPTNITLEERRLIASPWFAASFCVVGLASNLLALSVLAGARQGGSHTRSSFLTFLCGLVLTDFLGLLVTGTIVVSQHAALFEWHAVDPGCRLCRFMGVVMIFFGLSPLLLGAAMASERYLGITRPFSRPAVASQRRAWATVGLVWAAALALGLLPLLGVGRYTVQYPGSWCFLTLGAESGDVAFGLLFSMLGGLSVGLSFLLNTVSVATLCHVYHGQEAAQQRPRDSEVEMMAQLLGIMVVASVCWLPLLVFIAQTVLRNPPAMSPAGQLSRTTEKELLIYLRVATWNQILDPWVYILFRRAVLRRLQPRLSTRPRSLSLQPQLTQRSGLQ
As to the kind of experiment: Binding affinity against human recombinant Thromboxane A2 receptor was determined using radioligand competition binding assay.

Experiment [3] deals with T1, Prostaglandin D2 receptor. As to the kind of experiment: Binding affinity against human recombinant […] D2 in presence of 0.5% human serum albumin.

In general, Ki refers to a dissociation constant, usually derived from enzyme kinetics or from competition with a known ligand. On to `CCOC(=O)c1cc(CSc2nc3ccccc3n2Cc2ccc(Cl)cc2)cc(C(=O)OCC)c1`, for which the Ki in experiment [1] is greater than 43000 nM; in experiment [2], greater than 71 µM.

As for `CSc1ccc(CSc2nc3ccccc3n2Cc2ccc(Cl)cc2)cc1`, the values for the Ki in experiment [1] and in experiment [2] were 550 nM and greater than 73 µM, respectively.

`COC(=O)c1cccc(CSc2nc3ccccc3n2Cc2ccc(Cl)cc2)c1`: the Ki worked out at 1100 nM in experiment [1] and 9.3 µM in experiment [2].

Turning to `CC(C)(O)c1ccc(CSc2nc3ccccc3n2Cc2ccc(Cl)cc2)cc1`, the Ki was 140 nM in experiment [1] and 11.9 µM in experiment [2].

As to `COC(=O)c1ccc(C[S+]([O-])c2nc3ccccc3n2Cc2ccc(Cl)cc2)cc1` (configuration not stated), the Ki in experiment [3] is 1500 nM; in experiment [1], 550 nM; in experiment [2], 3.1 µM.

As to `COC(=O)c1ccc(-c2nc3ccccc3n2Cc2ccc(Cl)cc2)cc1`, the Ki was determined as 800 nM in experiment [3], 8000 nM in experiment [1] and 7 µM in experiment [2].

With `COC(=O)c1ccc(CCc2nc3ccccc3n2Cc2ccc(Cl)cc2)cc1`, the Ki came out at 137 nM in experiment [3], 24 nM in experiment [1] and 2.2 µM in experiment [2].

Regarding `NS(=O)(=O)c1ccc(CSc2nc3ccccc3n2Cc2ccc(Cl)cc2)cc1`, the Ki was 1200 nM in experiment [1] and greater than 70 µM in experiment [2].

As for `COC(=O)c1ccc(CNc2nc3ccccc3n2Cc2ccc(Cl)cc2)cc1`, the Ki in experiment [1] turned out to be 1100 nM; in experiment [2] it was 6 µM.

With `CC(O)c1ccc(CSc2nc3ccccc3n2Cc2ccc(Cl)cc2)cc1` (configuration not stated), the Ki in experiment [1] was 270 nM; in experiment [2] it was 1.5 µM.

For the compound `Fc1ccc(CSc2nc3ccccc3n2Cc2ccc(Cl)cc2)cc1`, the Ki in experiment [1] was greater than 42000 nM; in experiment [2] it was 6.1 µM.

As for `CC(=O)c1ccc(CSc2nc3ccccc3n2Cc2ccc(Cl)cc2)cc1`, the values for the Ki in experiment [1] and in experiment [2] were 300 nM and 3.8 µM, respectively.

Regarding `Cc1nc(-c2ccc(CSc3nc4ccccc4n3Cc3ccc(Cl)cc3)cc2)no1`, the Ki is 96 nM in experiment [1] and greater than 74 µM in experiment [2].

With `COC(=O)Cc1ccc(CSc2nc3ccccc3n2Cc2ccc(Cl)cc2)cc1`, the Ki was 330 nM in experiment [1] and 1.5 µM in experiment [2].

As to `O=C(O)c1ccc(CSc2nc3ccccc3n2Cc2ccc(Cl)cc2)cc1`, the Ki in experiment [1] worked out at 3500 nM; in experiment [2], 4.7 µM.

`CN(C)C(=O)c1ccc(CSc2nc3ccccc3n2Cc2ccc(Cl)cc2)cc1`: the Ki came out at 800 nM in experiment [1] and 2 µM in experiment [2].

For the compound `COC(=O)c1ccc(Nc2nc3ccccc3n2Cc2ccc(Cl)cc2)cc1`, the results for the Ki in experiment [3], in experiment [1] and in experiment [2] were 5400 nM, 1500 nM and 0.9 µM, respectively.

As for `FC(F)(F)c1ccc(CSc2nc3ccccc3n2Cc2ccc(Cl)cc2)cc1`, the values for the Ki in experiment [1] and in experiment [2] were 2600 nM and greater than 73 µM, respectively.

Take `Clc1ccc(Cn2c(SCc3ccccc3)nc3ccccc32)cc1`: the Ki in experiment [1] was 6700 nM; in experiment [2], 4.2 µM.

`N#Cc1ccc(CSc2nc3ccccc3n2Cc2ccc(Cl)cc2)cc1`: the values for the Ki in experiment [1] and in experiment [2] were 4200 nM and 0.95 µM, respectively.

Turning to `COC(=O)c1ccc(/C=C/c2nc3ccccc3n2Cc2ccc(Cl)cc2)cc1`, the values for the Ki in experiment [3], in experiment [1] and in experiment [2] were 67 nM, 38 nM and greater than 75 µM, respectively.

On to `Cc1noc(-c2ccc(CSc3nc4ccccc4n3Cc3ccc(Cl)cc3)cc2)n1`, for which the results for the Ki in experiment [1] and in experiment [2] were 310 nM and greater than 74 µM, respectively.

Take `COC(=O)c1ccc(Cc2nc3ccccc3n2Cc2ccc(Cl)cc2)cc1`: the figures for the Ki in experiment [3], in experiment [1] and in experiment [2] were greater than 12000 nM, 6200 nM and 4 µM, respectively.

For `CS(=O)(=O)c1ccc(CSc2nc3ccccc3n2Cc2ccc(Cl)cc2)cc1`, the Ki in experiment [1] was determined as 1100 nM; in experiment [2], 2 µM.

As to `COC(=O)c1ccc(CSc2nc3ccccc3n2Cc2ccc(Cl)cc2)cc1`, the figures for the Ki in experiment [3], in experiment [1] and in experiment [2] were 297 nM, 73 nM and 9.1 µM, respectively.
